How the values were obtained:
Type 2 diabetic rats = assay: Blood sugar lowering in insulin-induced type 2 diabetic rats after oral administration; assay type: in vivo, rat
Experimental: (c) Insulin-induced type 2 diabetic rats: the abdominal cavity of the male Wistar rats of 12 weeks age are injected with 0.5 IU/kg long-term insulin (MonotardR HM) three times a day for fourteen days. Then, the 10 mg/kg tolbutamide, an anti-diabetic drug of sulfonylurea class, is injected into the abdominal cavity. Phlebotomize 0.1 ml blood respectively at the preadministration and the postadministration of sixty minutes, and calculate the reduced value of the blood sugar. If the variation of the ability of lowering blood sugar is less than 10%, which is deemed as the type II (insulin resistance) diabetes rat.
(d) The administration: Dissolve the medicine equivalently in deionized water, and then administrate the mentioned solution into the normal and diabetic rats by an orally perfusion. Keep with the desired concentration of the perfusion amount by taking suitable amount of the medicine solution according to the weight of the different animal.
The rats to be experimented should undergo a starvation for 8-12 hours overnight. Next day, the rats are anesthetized with 30 mg/kg pentobarbital by injecting into the abdominal cavity. After the rats fall asleep, fix the rats on the board with the rubber band. Open the groin, find the veins, bleed 0.1 ml blood from an empty stomach, and then feed the medicine into the body of the rats by taking orally. After 90 minutes, bleed and perform a centrifugation (13,000 rpm, 5 minutes) to separate the serum and the plasma. Take the 10 μl supernatant of the serum and add 1 ml reagent of the glucose kit thereinto by gently mixing. React for 5 minutes at 37 °C, followed by detecting the value of the blood sugar by means of BST330 based on the different absorption level. […] The value of the blood sugar (mg/dL) is calculated by comparing the level of redness with contrasting the standard curve.
(The value of blood sugar at postadministration)−(The value of blood sugar at preadministration)/(The value of blood sugar at preadministration)×100%

rats = assay: Intravenous glucose tolerance test (IGTT); assay type: in vivo, rat; details: oral 0.5 mg/ml/kg; 1000 mg/kg glucose intravenous, 30 minutes
[1] = tested on: rats with coronary artery ligature-reperfusion; assay: Coronary artery ligature / reperfusion model of the living rat (area at risk, infarct size); assay type: in vivo; details: ischaemia 45 minutes, reperfusion two hours
Experimental: The grown-up male rats having the weight of 250˜300 grams (Sprague-Dawley strain, purchased BioLASCO Taiwan Co., Ltd.) are anesthetized with 1.25 g/kg urethane by the abdominal cavity injection. After anaesthetization, cut the trachea, connect with the artificial respirator (Harvard Rodent Ventilator Model 983), give 15 ml/kg of the tidal volume, and control the respiratory rate at […], followed by cutting off both sides of the vagus immediately. After the intubation of the right arterial carotis, it is connected to the pressure converter (Statham P23XL transducer) so as to monitor the changes of systemic blood pressure. In addition, the rats' four limbs are connected to the silver electrode, so as to record the changes of the electrocardiogram (ECG). Blood pressures, heartbeats and electrocardiogram curves are recorded and analyzed by the software (MacLab data acquisition system, AD Instrument Pty, Castle Hill, NSW, Australia).
After all previous preparations have been done, open the ribcage by the thoracotomy and cut off the skin layers and muscles to find the rib. Burn the fourth and fifth rib close to 2 mm of the sternum in an electrical knife and stabilize the injury with the retractor followed by rending the pericardial membrane, separating the left atrial appendage gently by the cottons, and clasping the anterior interventricular branch of the left coronary artery immediately between the left atrial appendage and the pulmonary artery by a needle forceps having a silk yarn with a hook. Put loops on both ends of silk yarn to seal the wound by unclamping the retractor. Balance in 15 minutes, and if there exists cardiac arrhythmia or the systolic pressure is lower than 80 mmHg, it will be eliminated.
After the balance, the acute cardiac muscle ischaemia is caused by pushing the loop passed by a silk yarn with a hemostat downwards to be stabilized. Then, unclamp the hemostat and uplift the loop to perform a reperfusion of the coronary artery being ligated by the silk yarn. […] If the same surgical procedure is performed, the rat without administrating the drug and performing an ischaemia and an ischaemia/reperfusion is regarded as the sham group. The rundown of the ischaemia and the ischaemia/reperfusion of the present test is as follows.
Perform an ischaemia for 45 minutes and perform an ischaemia/reperfusion for 2 hours. Administrate by injecting the drug into the abdominal cavity after perform the ischaemia for 15 minutes.
Inject the approximately 2 ml, 1% methylene blue into the ischaemic area via a jugular vein, where the non-ischemic area is dyed as purple and the ischemic area or area at risk is retained as red. Subsequently, the heart is immediately took out and washed by the physiological salt solution to remove the connective tissue of the atrium and the surplus water. Cut the undyed ischemic area and weight the total ventricle to calculate the ischemic area of the ventricle. Area at risk (% of total ventricular)=(Weight of risk area)/(Total ventricular weight)×100%.
Cut the ischemic area into a slice with the thickness of approximately 1 mm. Immerse the slice into a TTC (2,3,5-triphenyltetrazolium chloride, in saline) solution, and heat the resultant solution at the 37[…] incubator for 30 minutes, followed by replacing the solvent with 10% formaldehyde solution to preserve the resulting solution for two weeks. The living cells are able to produce the dehydrogenase, which could reduce TTC to a crimson formazan precipitate, whereas the dead cells are unable to produce dehydrogenase, which decolor the formazan as a gray precipitate. Cut and weight the gray infraction area and calculate the ratio. Infract Size (% of risk area)=(Weight of infraction)/(Weight of risk area)×100%.

SMILES: O=C(/C=C/c1ccc(O)c(O)c1)NCCc1ccccc1 [370G (45)]
- % decrease in plasma glucose (Type 2 diabetic rats; type 2 diabetic rats, 0.05 mg/kg oral, 90 min): 7.4 ± 2.6%
- % decrease in plasma glucose (Type 2 diabetic rats; type 2 diabetic rats, 0.1 mg/kg oral, 90 min): 17.2 ± 2.6 %
- % decrease in plasma glucose (Type 2 diabetic rats; type 2 diabetic rats, 0.5 mg/kg oral, 90 min): 20.1 ± 3.4 %
- % decrease in plasma glucose (Type 2 diabetic rats; type 2 diabetic rats, 1.0 mg/kg oral, 90 min): 23.3 ± 3.3 %
- % decrease in plasma glucose (Type 2 diabetic rats; type II diabetic rats, 0.5 mg/kg, p.o., 90 minutes): 20.0 ± 7.7%
- reducing the blood sugar (in words) (Type 2 diabetic rats; type II diabetics rats, oral 0.05 to 1.0 mg/kg): phenomenon of reducing the blood sugar are shown
- glucose availability in IGTT versus control (rats): raised
- ratio of the areas at risk in the overall area ([1]; 15 mg/kg): 41.1±1.3%
- ratio of the areas at risk in the overall area ([1]; 10^−6 mg/kg): 39.1±1.9%
- infract size (% of risk area) ([1]; 10^−5 mole/kg (approximately 2.8 mg/kg)): 68.8±2.9%
- infract size (% of risk area) ([1]; 10^−6 mole/kg (approximately 0.28 mg/kg)): 70.9±2.8
- infract size (% of risk area) [1]: 62.8±1.8%
- ratio of the areas at risk in the overall area [1]: 36.7±2.3%

Reference: patent publication US8088818B2, “Catechol-based derivatives for treating or preventing diabetics” (National Taiwan University, priority 2006, dated 2012)
